Read-outs that look alike come from different tables or passages of the source. Each block holds one compound with its values, some of them ahead of it.
Columns and labels:
[1] = design: method as in Wang et al., 2008; Feng et al., 2017; details: alkaline and light and heat conditions; ref Wang et al., 2008; Feng et al., 2017; cited from earlier work
Caco-2 cell = test system: Caco-2 cell; design: method as in Cai et al., 2016; details: compared with baicalin; ref Cai et al., 2016; cited from earlier work
[2] = Pharmacokinetic study in rat plasma after oral administration of QJYQ (UHPLC-sMRM); assay type: in vivo, Sprague-Dawley rats; details: for AUC(0-inf): read-out: AUC(0-∞); for MRT inf: read-out: MRT (0-∞); for MRT last: read-out: MRT(0-t)
Procedure: Exion LC AD tandem Blueline 3500 triple quadrupole mass spectrometer (AB SCIEX, Framingham, MA, United States) was used to thirty-three compounds in rat plasma. […] The whole detailed parameters of sMRM were obtained in Supplementary Table S1.
Rat plasma (100 μL) was mixed with 10% formic acid (10 μL) and vortexed for 1 min at room temperature. ISs (10 μL) and methanol/acetonitrile (1/1, v/v) (400 μL) were added and vortexed for 5 min, then centrifuged for 10 min at 14,000 rpm and 4°C. The transported supernatant was condensed to dryness under the flow of nitrogen gas. The dried residue was reconstituted with 70% methanol (100 μL) by vortex-mixing for 5 min and centrifuging at 14,000 rpm for 10 min. Last, 2 μL of the solution were injected into the UHPLC-sMRM system.
The pharmacokinetic study was approved by the Animal Ethics Committee of Tianjin University of Traditional Chinese Medicine (TCM-LAEC2021228). Ten male Sprague-Dawley rats (weight 220–240 g) was kept at the animal center of Tianjin University of Traditional Chinese Medicine (Tianjin, China). […] The sample was transferred right away following a 10 min period of centrifugation at 7000 rpm and 4°C. All plasma samples were frozen and stored at −80°C.
All the pharmacokinetic parameters were calculated using the DAS 1.0 software (Drug and Statistics 1.0, Medical College of Wannan, China). Pharmacokinetic parameters include the maximum drug concentration in plasma (Cmax), the time to achieve maximum drug concentration (Tmax), the area under the plasma concentration-time curve (AUC), elimination half-life (T1/2), and mean residence time (MRT). The pharmacokinetic parameters were computed using the non-compartmental model. All data are expressed as mean ± standard deviation (SD). GraphPad Prism 8.0 (GraphPad Software Inc., La Jolla, CA, United States) software was used to draw the drug-time curve.

[3] = Stability of the working solution (4°C for 1 month); assay type: physicochemical
[4] = Stability of analytes in rat plasma (auto-sampler, freeze-thaw, room temperature, long-term); details: for Autosampler for 24 h Accuracy (%): autosampler 24 h; for Room temperature for 24 h Accuracy (%): room temperature 24 h; for Freeze thaw cycles Accuracy (%): three freeze-thaw cycles
Procedure: The stability of analytes in plasma was evaluated by analyzing 4 QC samples (n = 6). The stability was included auto-sampler stability (keeping the sample in auto-sampler for 24 h), three times of freeze-thaw cycles stability (freezing cycle at −80°C, thawing cycle at room temperature), room temperature stability (storing samples at room temperature for 24 h), long-term stability (storing samples at −80°C for 1 month). […] Accompanying curve was established when testing the sample, calculate and compare the ratio of the actual measured concentration to the theoretical concentration, expressed in accuracy and RSD.

[5] = male, Sprague-Dawley, rat plasma, oral QJYQ 3.15 g/kg, n = 8, mean ± SD
[6] = male, Sprague-Dawley, rat plasma, oral QJYQ 3.15 g/kg, n = 8, mean ± SD, read-out: AUC(0-t)
[7] = male, Sprague-Dawley, rat plasma, oral QJYQ 3.15 g/kg, n = 8, mean ± SD, read-out: Cmax
[8] = male, Sprague-Dawley, rat, plasma, po, 3.15 g/kg, rat plasma, oral QJYQ 3.15 g/kg, n = 8, mean ± SD, read-out: Tmax
[9] = male, Sprague-Dawley, rat plasma, oral QJYQ 3.15 g/kg, MRT type not specified, read-out: MRT

- AUC(0-t) ([2]; rat, in vivo, po, 3.15 g/kg): 73080.32 ± 34091.07 ng·h/mL
- AUC(0-∞) ([2]; rat, in vivo, po, 3.15 g/kg): 73104.07 ± 34093.59 ng·h/mL
- Cmax ([2]; rat, in vivo, po, 3.15 g/kg): 5052.10 ± 3277.54 ng/mL
- MRT ([2]; rat, in vivo, po, 3.15 g/kg): greater than 8 h
- MRT (0-∞) ([2]; rat, in vivo, po, 3.15 g/kg): 8.40 ± 0.83 h
- MRT(0-t) ([2]; rat, in vivo, po, 3.15 g/kg): 8.39 ± 0.83 h
- T1/2 ([2]; rat, in vivo, po, 3.15 g/kg): 2.67 ± 0.24 h
- Tmax ([2]; rat, in vivo, po, 3.15 g/kg): 5.89 ± 3.26 h
- Working solution Accuracy (%) ([3]; 62.5 ng/mL): 91.0%
- Working solution Accuracy (%) ([3]; 500 ng/mL): 113.0%
- Working solution Accuracy (%) ([3]; 1000 ng/mL): 105.0%
- Working solution Accuracy (%) ([3]; 5000 ng/mL): 108.0%
- Autosampler for 24 h Accuracy (%) ([4]; 62.5 ng/mL): 89.7%
- Room temperature for 24 h Accuracy (%) ([4]; 62.5 ng/mL): 83.2%
- Freeze thaw cycles Accuracy (%) ([4]; 62.5 ng/mL): 84.2%
- −80°C for 1month Accuracy (%) ([4]; 62.5 ng/mL, −80°C 1 month): 83.7%
- Autosampler for 24 h Accuracy (%) ([4]; 500 ng/mL): 105.0%
- Room temperature for 24 h Accuracy (%) ([4]; 500 ng/mL): 93.4%
- −80°C for 1month Accuracy (%) ([4]; 500 ng/mL, −80°C 1 month): 113.0%
- Autosampler for 24 h Accuracy (%) ([4]; 1000 ng/mL): 98.7%
- Room temperature for 24 h Accuracy (%) ([4]; 1000 ng/mL): 85.6%
- Freeze thaw cycles Accuracy (%) ([4]; 1000 ng/mL): 95.1%
- −80°C for 1month Accuracy (%) ([4]; 1000 ng/mL, −80°C 1 month): 98.0%
- Autosampler for 24 h Accuracy (%) ([4]; 5000 ng/mL): 97.5%
- Room temperature for 24 h Accuracy (%) ([4]; 5000 ng/mL): 111.0%
- Freeze thaw cycles Accuracy (%) ([4]; 5000 ng/mL): 90.9%
- −80°C for 1month Accuracy (%) ([4]; 5000 ng/mL, −80°C 1 month): 89.1%
SMILES: COc1c(O[C@@H]2O[C@H](C(=O)O)[C@@H](O)[C@H](O)[C@H]2O)cc(O)c2c(=O)cc(-c3ccccc3)oc12 [wogonoside]
- stability [1]: not stable
- Caco-2 cell membrane permeability (Caco-2 cell): greater than baicalin

- half-life [2, 5]: 1.79 ± 0.38 h
- AUC(0-t) [2, 6]: 381 ± 101 ng·h/mL
- AUC(0-inf) [2, 5]: 385 ± 126 ng·h/mL
- Cmax [2, 7]: 153 ± 33.4 ng/mL
- MRT inf [2, 5]: 3.63 ± 1.57 h
- MRT last [2, 5]: 3.03 ± 1.01 h
- Working solution Accuracy (%) ([3]; 1.56 ng/mL): 81.9%
- Working solution Accuracy (%) ([3]; 100 ng/mL): 95.9%
- Working solution Accuracy (%) ([3]; 500 ng/mL): 92.8%
- Autosampler for 24 h Accuracy (%) ([4]; 1.56 ng/mL): 83.2%
- Room temperature for 24 h Accuracy (%) ([4]; 1.56 ng/mL): 82.7%
- Freeze thaw cycles Accuracy (%) ([4]; 1.56 ng/mL): 95.1%
- −80°C for 1month Accuracy (%) ([4]; 1.56 ng/mL, −80°C 1 month): 110.0%
- Autosampler for 24 h Accuracy (%) ([4]; 12.5 ng/mL): 102.0%
- Room temperature for 24 h Accuracy (%) ([4]; 12.5 ng/mL): 96.1%
- Freeze thaw cycles Accuracy (%) ([4]; 12.5 ng/mL): 95.2%
- −80°C for 1month Accuracy (%) ([4]; 12.5 ng/mL, −80°C 1 month): 85.1%
- Autosampler for 24 h Accuracy (%) ([4]; 100 ng/mL): 96.9%
- Room temperature for 24 h Accuracy (%) ([4]; 100 ng/mL): 98.7%
- Freeze thaw cycles Accuracy (%) ([4]; 100 ng/mL): 87.0%
- −80°C for 1month Accuracy (%) ([4]; 100 ng/mL, −80°C 1 month): 115.0%
- Autosampler for 24 h Accuracy (%) ([4]; 500 ng/mL): 115.0%
- Room temperature for 24 h Accuracy (%) ([4]; 500 ng/mL): 97.8%
- Freeze thaw cycles Accuracy (%) ([4]; 500 ng/mL): 88.7%
- −80°C for 1month Accuracy (%) ([4]; 500 ng/mL, −80°C 1 month): 109.0%
SMILES: O=C(O)C=Cc1ccc(O)cc1 [p-Coumaric acid]

- Tmax [2, 8]: 6.29 ± 0.76 h
- MRT [2, 9]: > 8 h
- half-life [2, 5]: 1.91 ± 0.09 h
- AUC(0-t) [2, 6]: 288 ± 66.1 ng·h/mL
- AUC(0-inf) [2, 5]: 288 ± 66.1 ng·h/mL
- MRT inf [2, 5]: 8.27 ± 1.09 h
- MRT last [2, 5]: 8.27 ± 1.09 h
- Cmax ([2]; rat plasma, oral QJYQ 3.15 g/kg, n = 8, mean ± SD): 38.13 ± 10.55 ng/mL
- Working solution Accuracy (%) ([3]; concentration 1.56 ng/mL): 98.0%
- Working solution Accuracy (%) ([3]; concentration 12.5 ng/mL): 98.9%
- Working solution Accuracy (%) ([3]; concentration 100 ng/mL): 85.8%
- Working solution Accuracy (%) ([3]; concentration 500 ng/mL): 100.0%
- Autosampler for 24 h Accuracy (%) ([4]; concentration 1.56 ng/mL): 82.8%
- Autosampler for 24 h Accuracy (%) ([4]; concentration 12.5 ng/mL): 111.0%
- Autosampler for 24 h Accuracy (%) ([4]; concentration 100 ng/mL): 102.0%
- Autosampler for 24 h Accuracy (%) ([4]; concentration 500 ng/mL): 90.5%
- Room temperature for 24 h Accuracy (%) ([4]; concentration 1.56 ng/mL): 98.0%
- Room temperature for 24 h Accuracy (%) ([4]; concentration 12.5 ng/mL): 94.1%
- Room temperature for 24 h Accuracy (%) ([4]; concentration 100 ng/mL): 89.8%
- Room temperature for 24 h Accuracy (%) ([4]; concentration 500 ng/mL): 106.0%
- Freeze thaw cycles Accuracy (%) ([4]; concentration 1.56 ng/mL): 86.4%
- Freeze thaw cycles Accuracy (%) ([4]; concentration 12.5 ng/mL): 89.6%
- Freeze thaw cycles Accuracy (%) ([4]; concentration 500 ng/mL): 91.8%
- −80°C for 1month Accuracy (%) ([4]; −80°C for 1 month, concentration 1.56 ng/mL): 111.0%
- −80°C for 1month Accuracy (%) ([4]; −80°C for 1 month, concentration 12.5 ng/mL): 85.1%
- −80°C for 1month Accuracy (%) ([4]; −80°C for 1 month, concentration 100 ng/mL): 96.0%
- −80°C for 1month Accuracy (%) ([4]; −80°C for 1 month, concentration 500 ng/mL): 87.4%
SMILES: COc1c(O)cc(O)c2c(=O)cc(-c3ccccc3)oc12 [wogonin]

SMILES: O=C(O)[C@H]1O[C@@H](Oc2cc3oc(-c4ccccc4)cc(=O)c3c(O)c2O)[C@H](O)[C@@H](O)[C@@H]1O [baicalin]
- stability [1]: not stable
- Tmax [2, 8]: 7.22 ± 1.41 h
- MRT [2, 9]: > 8 h
- half-life [2, 5]: 3.09 ± 0.87 h
- AUC(0-t) [2, 6]: 49300 ± 24900 ng·h/mL
- AUC(0-inf) [2, 5]: 49700 ± 24900 ng·h/mL
- Cmax [2, 7]: 4520 ± 3140 ng/mL
- MRT inf [2, 5]: 8.62 ± 0.53 h
- MRT last [2, 5]: 8.45 ± 0.58 h
- Working solution Accuracy (%) ([3]; 15.6 ng/mL): 83.1%
- Working solution Accuracy (%) ([3]; 125 ng/mL): 105.0%
- Working solution Accuracy (%) ([3]; 1000 ng/mL): 93.9%
- Working solution Accuracy (%) ([3]; 5000 ng/mL): 87.7%
- Autosampler for 24 h Accuracy (%) ([4]; 15.6 ng/mL): 111.0%
- Room temperature for 24 h Accuracy (%) ([4]; 15.6 ng/mL): 98.5%
- −80°C for 1month Accuracy (%) ([4]; 15.6 ng/mL, −80°C 1 month): 98.9%
- Autosampler for 24 h Accuracy (%) ([4]; 125 ng/mL): 113.0%
- Room temperature for 24 h Accuracy (%) ([4]; 125 ng/mL): 104.0%
- Freeze thaw cycles Accuracy (%) ([4]; 125 ng/mL): 89.3%
- −80°C for 1month Accuracy (%) ([4]; 125 ng/mL, −80°C 1 month): 98.1%
- Autosampler for 24 h Accuracy (%) ([4]; 1000 ng/mL): 94.2%
- Room temperature for 24 h Accuracy (%) ([4]; 1000 ng/mL): 96.8%
- Freeze thaw cycles Accuracy (%) ([4]; 1000 ng/mL): 89.7%
- −80°C for 1month Accuracy (%) ([4]; 1000 ng/mL, −80°C 1 month): 91.4%
- Autosampler for 24 h Accuracy (%) ([4]; 5000 ng/mL): 86.8%
- Room temperature for 24 h Accuracy (%) ([4]; 5000 ng/mL): 89.0%
- Freeze thaw cycles Accuracy (%) ([4]; 5000 ng/mL): 111.0%
- −80°C for 1month Accuracy (%) ([4]; 5000 ng/mL, −80°C 1 month): 90.3%
